Source: ChEMBL document CHEMBL1201862, “PubChem BioAssay data set” (2004)
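All cell lines were grown in 96-well plates and treated with compound for 48 hours. The concentration for 50% growth inhibition is given as GI50.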 Calls of active or inactive are those of the source. Rule as the data show it: active = GI50 up to about 1.1 µM and inactive = higher.

How the values were obtained:
Assay in all cases: NCI-60 cell line screen, 48 h
CAKI-1 = tested on: CAKI-1
CCRF-CEM = tested on: CCRF-CEM
HOP-18 = tested on: HOP-18
LXFL 529 = tested on: LXFL 529
SF-539 = tested on: SF-539
NCI-H226 = tested on: NCI-H226
RXF 393 = tested on: RXF 393
HOP-62 = tested on: HOP-62
M19-MEL = tested on: M19-MEL
SK-MEL-28 = tested on: SK-MEL-28
786-0 = tested on: 786-0
MOLT-4 = tested on: MOLT-4
M14 = tested on: M14
KM12 = tested on: KM12
UACC-257 = tested on: UACC-257
SNB-75 = tested on: SNB-75
SNB-78 = tested on: SNB-78
DLD-1 = tested on: DLD-1
SW-620 = tested on: SW-620
ACHN = tested on: ACHN
SR = tested on: SR
NCI-H522 = tested on: NCI-H522
HCC 2998 = tested on: HCC 2998
DMS-273 = tested on: DMS-273
SF-295 = tested on: SF-295
HCT-15 = tested on: HCT-15
XF498 = tested on: XF498
A498 = tested on: A498
NCI-H23 = tested on: NCI-H23
K562 = tested on: K562
NCI-H460 = tested on: NCI-H460
Malme-3M = tested on: Malme-3M
SK-MEL-5 = tested on: SK-MEL-5
EKVX = tested on: EKVX
LOX IMVI = tested on: LOX IMVI
SNB-19 = tested on: SNB-19
U-251 = tested on: U-251
DMS-114 = tested on: DMS-114
HOP-92 = tested on: HOP-92
HCT-116 = tested on: HCT-116
OVCAR-8 = tested on: OVCAR-8
OVCAR-5 = tested on: OVCAR-5
SK-OV-3 = tested on: SK-OV-3
COLO 205 = tested on: COLO 205
UO-31 = tested on: UO-31
SF-268 = tested on: SF-268
OVCAR-3 = tested on: OVCAR-3
OVCAR-4 = tested on: OVCAR-4
KM-20L2 = tested on: KM-20L2
IGROV-1 = tested on: IGROV-1
TK-10 = tested on: TK-10
UACC-62 = tested on: UACC-62
SK-MEL-2 = tested on: SK-MEL-2
SN12C = tested on: SN12C
A549 = tested on: A549

Structure (SMILES): COc1ccc2nc3cc(Cl)ccc3c(Sc3ccc([N+](=O)[O-])cc3C)c2c1
- GI50 (CAKI-1): > 100 µM (inactive)
- GI50 (CCRF-CEM): > 100 µM (inactive)
- GI50 (HOP-18): > 100 µM (inactive)
- GI50 (LXFL 529): > 100 µM (inactive)
- GI50 (SF-539): > 100 µM (inactive)
- GI50 (NCI-H226): > 100 µM (inactive)
- GI50 (RXF 393): > 100 µM (inactive)
- GI50 (HOP-62): > 100 µM (inactive)
- GI50 (M19-MEL): > 100 µM (inactive)
- GI50 (SK-MEL-28): > 100 µM (inactive)
- GI50 (786-0): > 100 µM (inactive)
- GI50 (MOLT-4): > 100 µM (inactive)
- GI50 (M14): > 100 µM (inactive)
- GI50 (KM12): > 100 µM (inactive)
- GI50 (UACC-257): > 100 µM (inactive)
- GI50 (SNB-75): > 100 µM (inactive)
- GI50 (SNB-78): > 100 µM (inactive)
- GI50 (DLD-1): > 100 µM (inactive)
- GI50 (SW-620): > 100 µM (inactive)
- GI50 (ACHN): > 100 µM (inactive)
- GI50 (SR): > 100 µM (inactive)
- GI50 (NCI-H522): > 100 µM (inactive)
- GI50 (HCC 2998): > 100 µM (inactive)
- GI50 (DMS-273): > 100 µM (inactive)
- GI50 (SF-295): > 100 µM (inactive)
- GI50 (HCT-15): > 100 µM
- GI50 (XF498): > 100 µM (inactive)
- GI50 (A498): > 100 µM (inactive)
- GI50 (NCI-H23): > 100 µM (inactive)
- GI50 (K562): > 100 µM (inactive)
- GI50 (NCI-H460): > 100 µM (inactive)
- GI50 (Malme-3M): > 100 µM (inactive)
- GI50 (SK-MEL-5): > 100 µM (inactive)
- GI50 (EKVX): > 100 µM (inactive)
- GI50 (LOX IMVI): > 100 µM (inactive)
- GI50 (SNB-19): > 100 µM (inactive)
- GI50 (U-251): > 100 µM (inactive)
- GI50 (DMS-114): > 100 µM (inactive)
- GI50 (HOP-92): > 100 µM (inactive)
- GI50 (HCT-116): > 100 µM (inactive)
- GI50 (OVCAR-8): > 100 µM (inactive)
- GI50 (OVCAR-5): > 100 µM (inactive)
- GI50 (SK-OV-3): > 100 µM (inactive)
- GI50 (COLO 205): 4.06 µM (inactive)
- GI50 (UO-31): > 100 µM (inactive)
- GI50 (SF-268): > 100 µM (inactive)
- GI50 (OVCAR-3): > 100 µM (inactive)
- GI50 (OVCAR-4): > 100 µM (inactive)
- GI50 (KM-20L2): > 100 µM (inactive)
- GI50 (IGROV-1): > 100 µM (inactive)
- GI50 (TK-10): > 100 µM (inactive)
- GI50 (UACC-62): > 100 µM (inactive)
- GI50 (SK-MEL-2): > 100 µM (inactive)
- GI50 (SN12C): 74.3 µM (inactive)
- GI50 (A549): > 100 µM (inactive)
